Converted amounts (≈) assume the structure as drawn.
What was measured:
Assay in all cases: MIC, CLSI broth microdilution
Assay type in all cases: cell-based
[1] = tested on: A. baumannii AABA1009 (Fluoroquinolone-resistant); conditions: for MIC AABA 1009: Table 2
Procedure: (§1) Minimum inhibitory concentrations (MIC) were determined by reference Clinical and Laboratory Standards Institute (CLSI) broth microdilution methods per M7-A7 [2006]. Quality control ranges utilizing E. coli ATCC 25922, P. aeruginosa ATCC 27853 and S. aureus ATCC 29213, and interpretive criteria for comparator agents were as published in CLSI M100-S17 [2007]. Briefly, serial two-fold dilutions of the test compounds were prepared at 2× concentration in Mueller Hinton Broth. The compound dilutions were mixed in 96-well assay plates in a 1:1 ratio with bacterial inoculum. The inoculum was prepared by suspension of a colony from an agar plate that was prepared the previous day. Bacteria were suspended in sterile saline and added to each assay plate to obtain a final concentration of 5×10^5 CFU/mL. The plates were incubated at 35° C. for 20 hours in ambient air.

[2] = tested on: A. baumannii AABA1065 (Fluoroquinolone-susceptible); conditions: for MIC AABA 1065: Table 2; for MIC: Acinetobacter baumannii, Table 2, read-out: MIC AABA 1065
Procedure: as §1

[3] = tested on: E. coli AECO001 (Fluoroquinolone susceptible, ATCC25922); conditions: Table 2, 35° C., 20 hours; for MIC: Escherichia coli, read-out: MIC AECO 001
Procedure: as §1

[4] = tested on: E. coli AECO066 (Fluoroquinolone-resistant); conditions: for MIC AECO 066: Table 2; for MIC: Escherichia coli, Table 2, read-out: MIC AECO 066
Procedure: as §1

[5] = tested on: P. aeruginosa APAE001 (Fluoroquinolone-susceptible, ATCC27853); conditions: for MIC APAE 001: Table 2; for MIC: Pseudomonas aeruginosa, Table 2, read-out: MIC APAE 001
Procedure: as §1

[6] = tested on: P. aeruginosa APAE054 (Fluoroquinolone-resistant); conditions: for MIC APAE 054: Table 2
Procedure: as §1

[7] = tested on: S. aureus ASAU001 (Fluoroquinolone-susceptible, ATCC29213); conditions: for MIC ASAU 001: Table 2; for MIC: Staphylococcus aureus, Table 2, read-out: MIC ASAU 001
Procedure: as §1

[8] = tested on: S. aureus ASAU1031 (Fluoroquinolone-resistant); conditions: for MIC ASAU 1031: Table 2
Procedure: as §1

[9] = tested on: S. pneumoniae ASPN001 (Fluoroquinolone-susceptible, ATCC49619); conditions: for MIC ASPN 001: Table 2
Procedure: as §1

[10] = tested on: S. pneumoniae ASPN1027 (Fluoroquinolone-resistant); conditions: for MIC ASPN 1027: Table 2
Procedure: as §1

## CCNC1CC2CCCc3c(c(F)cc4c(=O)c(C(=O)O)cn(C5CC5)c34)N2C1.O=C(O)C(F)(F)F (mixture of isomers) [7B/20, (9S)-4-cyclopropyl-9-(ethylamino)-12-fluoro-1-oxo-4,5,6,7,7a,8,9,10-octahydro-1H-pyrrolo[1′,2′:1,7]-azepino[2,3-h]quinoline-2-carboxylic acid trifluoroacetate]
[1]
  MIC AABA 1009: C (MIC's of greater than 8.0 μg/mL = C)
[2]
  MIC AABA 1065: A (MIC's of 1.0 μg/mL or less = A)
[3]
  MIC AECO 001: A (MIC's of 1.0 μg/mL or less = A)
[4]
  MIC AECO 066: C (MIC's of greater than 8.0 μg/mL = C)
[5]
  MIC APAE 001: B (MIC's of greater than 1.0 μg/mL to 8.0 μg/mL = B)
[6]
  MIC APAE 054: C (MIC's of greater than 8.0 μg/mL = C)
[7]
  MIC ASAU 001: A (MIC's of 1.0 μg/mL or less = A)
[8]
  MIC ASAU 1031: B (MIC's of greater than 1.0 μg/mL to 8.0 μg/mL = B)
[9]
  MIC ASPN 001: A (MIC's of 1.0 μg/mL or less = A)
[10]
  MIC ASPN 1027: C (MIC's of greater than 8.0 μg/mL = C)

## NCC1CCN2c3c(F)cc4c(=O)c(C(=O)O)cn(C5CC5)c4c3C=CCC12.O=C(O)C(F)(F)F (racemic) [24/rac-16, (7aS*,8S*)-8-(Aminomethyl)-4-cyclopropyl-12-fluoro-1-oxo-4,7,7a,8,9,10-hexahydro-1H-pyrrolo[1′,2′:1,7]aze-pino-[2,3-h]quinoline-2-carboxylic acid trifluoroacetate]
[1]
  MIC AABA 1009: C (MIC's of greater than 8.0 μg/mL = C)
[2]
  MIC AABA 1065: A (MIC's of 1.0 μg/mL or less = A)
[3]
  MIC AECO 001: A (MIC's of 1.0 μg/mL or less = A)
[4]
  MIC AECO 066: C (MIC's of greater than 8.0 μg/mL = C)
[5]
  MIC APAE 001: B (MIC's of greater than 1.0 μg/mL to 8.0 μg/mL = B)
[6]
  MIC APAE 054: C (MIC's of greater than 8.0 μg/mL = C)
[7]
  MIC ASAU 001: A (MIC's of 1.0 μg/mL or less = A)
[8]
  MIC ASAU 1031: B (MIC's of greater than 1.0 μg/mL to 8.0 μg/mL = B)
[9]
  MIC ASPN 001: A (MIC's of 1.0 μg/mL or less = A)
[10]
  MIC ASPN 1027: B (MIC's of greater than 1.0 μg/mL to 8.0 μg/mL = B)

## NCC1CCN2c3c(F)cc4c(=O)c(C(=O)O)cn(C5CC5)c4c3CCCC12.O=C(O)C(F)(F)F (racemic) [24/rac-17, (7aS*,8S*)-8-(Aminomethyl)-4-cyclopropyl-12-fluoro-1-oxo-4,5,6,7,7a,8,9,10-octahydro-1H-pyrrolo[1′,2′:1,7]-azepino[2,3-h]quinoline-2-carboxylic acid trifluoroacetate]
[1]
  MIC AABA 1009: C (MIC's of greater than 8.0 μg/mL = C)
[2]
  MIC AABA 1065: A (MIC's of 1.0 μg/mL or less = A)
[3]
  MIC AECO 001: A (MIC's of 1.0 μg/mL or less = A)
[4]
  MIC AECO 066: C (MIC's of greater than 8.0 μg/mL = C)
[5]
  MIC APAE 001: B (MIC's of greater than 1.0 μg/mL to 8.0 μg/mL = B)
[6]
  MIC APAE 054: C (MIC's of greater than 8.0 μg/mL = C)
[7]
  MIC ASAU 001: A (MIC's of 1.0 μg/mL or less = A)
[8]
  MIC ASAU 1031: B (MIC's of greater than 1.0 μg/mL to 8.0 μg/mL = B)
[9]
  MIC ASPN 001: A (MIC's of 1.0 μg/mL or less = A)
[10]
  MIC ASPN 1027: B (MIC's of greater than 1.0 μg/mL to 8.0 μg/mL = B)

## O=C(O)c1cn(C2CC2)c2c3c(c(F)cc2c1=O)N1CCC[C@H]1CCC3 [1/10]
[1]; Acinetobacter baumannii, Table 2, read-out: MIC AABA 1009
  MIC: > 8 µg/mL
[2]
  MIC: 1 to 8 µg/mL (≈ 2.81 to 22.4 µM)
[3]
  MIC: ≤ 1 µg/mL
[4]
  MIC: > 8 µg/mL
[5]
  MIC: > 8 µg/mL
[6]; Pseudomonas aeruginosa, Table 2, read-out: MIC APAE 054
  MIC: > 8 µg/mL
[7]
  MIC: ≤ 1 µg/mL
[8]; Staphylococcus aureus, Table 2, read-out: MIC ASAU 1031
  MIC: 1 to 8 µg/mL (≈ 2.81 to 22.4 µM)
[9]; Streptococcus pneumoniae, Table 2, read-out: MIC ASPN 001
  MIC: ≤ 1 µg/mL
[10]; Streptococcus pneumoniae, Table 2, read-out: MIC ASPN 1027
  MIC: > 8 µg/mL

## N[C@H]1C[C@H]2CN=Cc3c(c(F)cc4c(=O)c(C(=O)O)cn(C5CC5)c34)N2C1.O=C(O)C(F)(F)F [5/10, (3aS,5S)-5-amino-13-cyclopropyl-8-fluoro-10-oxo-3a,4,5,6,10,13-hexahydro-3H-pyrrolo[2′,′:3,4][1,4]diazepino[5,6-h]quinoline-11-carboxylic acid trifluoroacetate]
[1]
  MIC AABA 1009: C (MIC's of greater than 8.0 μg/mL = C)
[2]
  MIC AABA 1065: B (MIC's of greater than 1.0 μg/mL to 8.0 μg/mL = B)
[3]
  MIC AECO 001: A (MIC's of 1.0 μg/mL or less = A)
[4]
  MIC AECO 066: C (MIC's of greater than 8.0 μg/mL = C)
[5]
  MIC APAE 001: B (MIC's of greater than 1.0 μg/mL to 8.0 μg/mL = B)
[6]
  MIC APAE 054: C (MIC's of greater than 8.0 μg/mL = C)
[7]
  MIC ASAU 001: B (MIC's of greater than 1.0 μg/mL to 8.0 μg/mL = B)
[8]
  MIC ASAU 1031: C (MIC's of greater than 8.0 μg/mL = C)
[9]
  MIC ASPN 001: B (MIC's of greater than 1.0 μg/mL to 8.0 μg/mL = B)
[10]
  MIC ASPN 1027: C (MIC's of greater than 8.0 μg/mL = C)

## N[C@H]1C[C@H]2CNCc3c(c(F)cc4c(=O)c(C(=O)O)cn(C5CC5)c34)N2C1.O=C(O)C(F)(F)F.O=C(O)C(F)(F)F [5/11, (3aS,5S)-5-amino-13-cyclopropyl-8-fluoro-10-oxo-2,3,3a,4,5,6,10,13-octahydro-1H-pyrrolo[2′,1′:3,4][1,4]diazepino[5,6-h]quinoline-11-carboxylic acid bis(trifluoroacetate)]
[1]
  MIC AABA 1009: C (MIC's of greater than 8.0 μg/mL = C)
[2]
  MIC AABA 1065: B (MIC's of greater than 1.0 μg/mL to 8.0 μg/mL = B)
[3]
  MIC AECO 001: A (MIC's of 1.0 μg/mL or less = A)
[4]
  MIC AECO 066: C (MIC's of greater than 8.0 μg/mL = C)
[5]
  MIC APAE 001: B (MIC's of greater than 1.0 μg/mL to 8.0 μg/mL = B)
[6]
  MIC APAE 054: C (MIC's of greater than 8.0 μg/mL = C)
[7]
  MIC ASAU 001: B (MIC's of greater than 1.0 μg/mL to 8.0 μg/mL = B)
[8]
  MIC ASAU 1031: C (MIC's of greater than 8.0 μg/mL = C)
[9]
  MIC ASPN 001: B (MIC's of greater than 1.0 μg/mL to 8.0 μg/mL = B)
[10]
  MIC ASPN 1027: C (MIC's of greater than 8.0 μg/mL = C)

## NC1CCN2c3c(F)cc4c(=O)c(C(=O)O)cn(C5CC5)c4c3COCC12.O=C(O)C(F)(F)F [6/7, (3aS,4R)-4-amino-13-cyclopropyl-8-fluoro-10-oxo-3a,4,5,6,10,13-hexahydro-1H,3H-pyrrolo[2′,1′:3,4][1,4]oxazepino[5,6-h]quinoline-1′-carboxylic acid trifluoroacetate]
[1]
  MIC AABA 1009: B (MIC's of greater than 1.0 μg/mL to 8.0 μg/mL = B)
[2]
  MIC AABA 1065: A (MIC's of 1.0 μg/mL or less = A)
[3]
  MIC AECO 001: A (MIC's of 1.0 μg/mL or less = A)
[4]
  MIC AECO 066: B (MIC's of greater than 1.0 μg/mL to 8.0 μg/mL = B)
[5]
  MIC APAE 001: A (MIC's of 1.0 μg/mL or less = A)
[6]
  MIC APAE 054: C (MIC's of greater than 8.0 μg/mL = C)
[7]
  MIC ASAU 001: A (MIC's of 1.0 μg/mL or less = A)
[8]
  MIC ASAU 1031: B (MIC's of greater than 1.0 μg/mL to 8.0 μg/mL = B)
[9]
  MIC ASPN 001: A (MIC's of 1.0 μg/mL or less = A)
[10]
  MIC ASPN 1027: A (MIC's of 1.0 μg/mL or less = A)

## O=C1CC2CCCN2c2c(F)cc3c(=O)c(C(=O)O)cn(C4CC4)c3c2N1 (centres unmarked) [32/3]
[2]
  MIC: > 8 µg/mL
[3]
  MIC: > 8 µg/mL
[4]
  MIC: > 8 µg/mL
[5]
  MIC: > 8 µg/mL
[7]
  MIC: > 8 µg/mL

## O=C(O)c1cn(C2CC2)c2c3c(c(F)cc2c1=O)N1CCCC1CO3 (centres unmarked) [Comparative Compound 1, reference compound]
[2]
  MIC: > 8 µg/mL
[3]
  MIC: > 8 µg/mL
[4]
  MIC: > 8 µg/mL
[5]
  MIC: > 8 µg/mL
[7]
  MIC: 1 to 8 µg/mL (≈ 2.9 to 23.2 µM)
